The values below come from patent US20250084084A1, “Crystalline form of (2R)-2-(5-fluoro-2-methoxypyridin-4-yl)-1-[(2S)-7-methyl-6-(pyrimidin-2-yl)-3,4-dihydro-1H-spiro[1,8-naphthyridine-2,3-pyrrolidin]-1-yl]propan-1-one” (Pfizer Inc., priority 2020, published 2025).

Like-named read-outs stand apart in the source and are kept apart here. Some results are limits rather than exact numbers.

For the experiment, the target named is α-melanocyte-stimulating hormone receptor (hMC4R) (Homo sapiens (Human), UniProt P32245). In words: In vitro binding affinity assay using hMC4R (radioligand competition binding, [125I]-(Nle4, D-Phe7)-α-MSH). The conditions noted are these: geometric mean. As for the experimental part: The binding affinity of test compounds at the α-melanocyte-stimulating hormone receptor (hMC4R) was assessed using a radioligand competition binding assay. Recombinant Chinese hamster ovaries (CHO) cells stably expressing hMC4R (PerkinElmer #ES-191-C) were used for competitive binding. hMC4R membranes were grown in Dulbecco's Modified Essential Medium and Ham's F-12 Medium (DMEM/F12), 10% heat inactivated fetal bovine serum (FBS), 0.4 mg/mL Geneticin and 2 mM L-glutamine. Cell membranes were bulked and frozen until the assay was performed.
Chain of α-melanocyte-stimulating hormone receptor (hMC4R) (P32245 whole entry): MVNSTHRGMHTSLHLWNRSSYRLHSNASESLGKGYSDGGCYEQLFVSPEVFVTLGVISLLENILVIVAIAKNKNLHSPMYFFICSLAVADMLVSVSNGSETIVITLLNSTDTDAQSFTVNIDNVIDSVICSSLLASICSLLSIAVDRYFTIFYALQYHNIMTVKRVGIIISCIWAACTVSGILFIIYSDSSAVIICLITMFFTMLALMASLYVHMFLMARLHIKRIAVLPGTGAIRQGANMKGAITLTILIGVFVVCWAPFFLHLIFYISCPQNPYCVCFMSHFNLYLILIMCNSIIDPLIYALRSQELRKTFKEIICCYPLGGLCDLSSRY
Compounds were solubilized in 100% dimethyl sulfoxide (DMSO) to a concentration of 30 mM. A 10-point intermediate dilution series using half log dilutions was created in 100% DMSO with a top concentration of 0.03 mM. The serially diluted compounds were spotted as 1 μL/well, in 96-well Costar 3363 plates. The final compound range in the assay was 300 nM to 0.01 nM with a final DMSO concentration of 1%. Control wells, containing 1 μL of 2 mM ([…]) alpha-melanocyte stimulating hormone (α-MSH-Tocris #2584) was added to the non-specific binding wells and 1 μL 100% DMSO for the total binding control wells. […] The exact concentration of radioligand used for each experiment was determined by liquid scintillation counting and adjusted if necessary.
Frozen hMC4R cell membranes were thawed and Dounce homogenized. Homogenates were resuspended in assay buffer to a concentration of 2 μg per well. […] The plates were incubated for 2 hours at room temperature. Assay samples were then rapidly filtered through Unifilter-96 GF/B PEI coated filter plates using a filter plate harvester (PerkinElmer) and rinsed with ice-cold wash buffer [25 mM (4-(2-hydroxyethyl)-1-piperazineethanesulfonic acid (HEPES), 1 mM MgCl2, 2.5 mM CaCl2, and 500 mM NaCl]. Filter plates were dried overnight at room temperature. Plates were then bottom-sealed prior to the addition of 50 μL/well Ultima Gold XR scintillation fluid (PerkinElmer 6013111). Plates were then top-sealed, incubated for 60 minutes at room temperature and then the amount of radioactivity present was determined by liquid scintillation counting on a Microbeta Trilux (PerkinElmer #2450-0060).
The raw data (expressed as counts per minute) were analyzed using ActivityBase (IDBS Data Management Software). […] Equilibrium dissociation constant for inhibitor of ligand and receptor interaction (Ki) values were then calculated from the IC50 values using the Cheng-Prusoff equation: Ki=IC50/(1+([L]/Kd)), where [L] is the concentration of the radioligand used in the experiment and Kd is the affinity of the radioligand (determined in separate saturation experiments).
On the technique in general: In a radioligand displacement assay an active substance lowers the binding of a labelled ligand.

The mark [1] stands for this setting: read-out: Ki (nM) geometric mean.

Regarding `COc1cc([C@@H](C)C(=O)N2CCC3(CCc4cc(-c5coc(C)n5)c(C)nc4N3)C2)c(F)cn1` (mixture of isomers) [Example 33, (2R)-2-(5-fluoro-2-methoxypyridin-4-yl)-1-[7-methyl-6-(2-methyl-1,3-oxazol-4-yl)-3,4-dihydro-1H-spiro[1,8-naphthyridine-2,3′-pyrrolidin]-1′-yl]propan-1-one], the Ki (commonly a measure of affinity in units of concentration, obtained from inhibition or displacement) under setting [1] was determined as 2.6 nM.

For the molecule `COc1cc([C@@H](C)C(=O)N2CC[C@@]3(CCc4ccc(C)nc4N3)C2)nc(C)n1` (single isomer, unassigned) [Example 23, 2-(6-methoxy-2-methylpyrimidin-4-yl)-1-(7-methyl-3,4-dihydro-1H-spiro[1,8-naphthyridine-2,3′-pyrrolidin]-1′-yl)propan-1-one], the Ki under setting [1] stood at 21 nM. With `COc1cc([C@@H](C)C(=O)N2CC[C@@]3(CCc4cc(-c5ncccn5)c(C)nc4N3)C2)c(C(F)(F)F)cn1` (single isomer, unassigned) [Example 40], the inhibition constant (Ki) under setting [1] was 150 nM. Take `COc1ccc([C@@H](C)C(=O)N2CC[C@@]3(CCc4cc(-c5ncccn5)c(C)nc4N3)C2)cc1F` (single isomer, unassigned) [Example 42]: under setting [1], the Ki is 1.9 nM. The same measure, in the same setting: under `Cc1nc(OC(F)F)cc([C@@H](C)C(=O)N2CC[C@@]3(CCc4cc(-c5ncccn5)c(C)nc4N3)C2)n1` (single isomer, unassigned) [Example 44] stands 54 nM; under `COc1cc([C@](C)(F)C(=O)N2CC[C@@]3(CCc4cc(-c5ncccn5)c(C)nc4N3)C2)ccn1` (single isomer, unassigned) [Example 46], 3.5 nM. On to `Cc1nc2c(cc1-c1ncccn1)CC[C@@]1(CCN(C(=O)[C@H](C)c3ccc(F)c(F)c3)C1)N2` (single isomer, unassigned) [Example 50], for which, under setting [1], the Ki turned out to be 0.81 nM. Consider `Cc1nc2c(cc1-c1nnn(C)n1)CC[C@@]1(CCN(C(=O)Cc3ccc(C(F)(F)F)cc3)C1)N2` (single isomer, unassigned) [Example 65, 1-[7-methyl-6-(2-methyl-2H-tetrazol-5-yl)-3,4-dihydro-1H-spiro[1,8-naphthyridine-2,3′-pyrrolidin]-1′-yl]-2-[4-(trifluoromethyl)phenyl]ethan-1-one], for which the Ki under setting [1] was 1.7 nM. Same read-out and setting: the value for `Cc1nc2c(cc1-c1nnn(C)n1)CC[C@@]1(CCN(C(=O)Cc3ccc(C(F)(F)F)cc3)C1)N2` (single isomer, unassigned) [Example 66, 1-[7-methyl-6-(2-methyl-2H-tetrazol-5-yl)-3,4-dihydro-1H-spiro[1,8-naphthyridine-2,3′-pyrrolidin]-1′-yl]-2-[4-(trifluoromethyl)phenyl]ethan-1-one] was 250 nM; that for `Cc1nc2c(cc1-c1ncccn1)CC[C@@]1(CCN(C(=O)[C@H](C)c3cc(N(C)C)ncc3F)C1)N2` (single isomer, unassigned) [Example 81] was 6.6 nM. For `COc1cc([C@@H](C)C(=O)N2CC[C@@]3(CCc4cc(-c5ncccn5)c(C)nc4N3)C2)cc(OC)n1` (single isomer, unassigned) [Example 83], the Ki under setting [1] stood at 0.67 nM. For the molecule `Cc1ccc2c(n1)N[C@@]1(CC2)CCN(C(=O)Cc2ccc(F)cc2)C1` (single isomer, unassigned) [Example 87, 2-(4-fluorophenyl)-1-(7-methyl-3,4-dihydro-1H-spiro[1,8-naphthyridine-2,3′-pyrrolidin]-1′-yl)ethan-1-one], the Ki under setting [1] turned out to be 48 nM. As for `Cc1ccc2c(n1)N[C@@]1(CC2)CCN(C(=O)Cc2ccc(F)cc2)C1` (single isomer, unassigned) [Example 88, 2-(4-fluorophenyl)-1-(7-methyl-3,4-dihydro-1H-spiro[1,8-naphthyridine-2,3′-pyrrolidin]-1′-yl)ethan-1-one], the Ki under setting [1] is > 2200 nM. Regarding `COc1cc(OC)cc([C@@H](C)C(=O)N2CCC3(CCc4cc(-c5cnn(C)c5)c(C)nc4N3)C2)c1` (single isomer, unassigned) [Example 90], under setting [1], the Ki was 0.044 nM. As to `COc1cc([C@@H](C)C(=O)N2CC[C@@]3(CCc4cc(-c5nc(C(F)(F)F)n(C)n5)c(C)nc4N3)C2)c(F)cn1` (single isomer, unassigned) [Example 92], the Ki under setting [1] came out at 0.45 nM.

With `COc1cc([C@@H](C)C(=O)N2CC[C@@]3(CCc4cc(-c5nc(C(F)(F)F)n(C)n5)c(C)nc4N3)C2)c(Cl)cn1` (single isomer, unassigned) [Example 94], the inhibition constant Ki under setting [1] came to 1.2 nM. As to `COc1cc([C@@H](C)C(=O)N2CC[C@@]3(CCc4ccc(C)nc4N3)C2)c(F)cn1` (single isomer, unassigned) [Example 98], the Ki under setting [1] was found to be 2.8 nM. `COc1cc([C@@H](C)C(=O)N2CC[C@@]3(CCc4ccc(C)nc4N3)C2)c(Cl)cn1` (single isomer, unassigned) [Example 100]: the Ki under setting [1] came out at 1.1 nM. With `COc1cc([C@@H](C)C(=O)N2CC[C@@]3(CCc4cc(Cl)c(C)nc4N3)C2)c(F)cn1` (single isomer, unassigned) [Example 102], where the note is “read-out: Ki (nM) geometric”, the Ki stood at 110 nM. Consider `COc1cc([C@@H](C)C(=O)N2CC[C@@]3(CCc4cc(-c5cnn(C)c5)c(C)nc4N3)C2)c(Cl)cn1` (single isomer, unassigned) [Example 104], for which the Ki (read-out: Ki (nM) geometric) was 0.48 nM. With `Cc1nc2c(cc1-c1nnn(C)n1)CC[C@@]1(CCN(C(=O)[C@H](C)c3ccc(OC(F)F)nc3)C1)N2` (single isomer, unassigned) [Example 107], where the note is “read-out: Ki (nM) geometric”, the Ki stood at 57 nM.

In the case of `Cc1nc2c(cc1-c1nnn(C)n1)CC[C@@]1(CCN(C(=O)C(C)c3ccc(C(F)(F)F)cc3)C1)N2` (single isomer, unassigned) [Example 109], the Ki (read-out: Ki (nM) geometric) came to 0.73 nM. Consider `COc1cc([C@@H](C)C(=O)N2CC[C@@]3(CCc4cc(-c5nc(OC)n(C)n5)c(C)nc4N3)C2)c(F)cn1` (single isomer, unassigned) [Example 112], for which, for the setting “read-out: Ki (nM) geometric”, the Ki was found to be 0.78 nM.

For `COc1cc([C@@H](C)C(=O)N2CC[C@@]3(CCc4cc(-c5nc(C(F)F)n(C)n5)c(C)nc4N3)C2)nc(C)n1` (single isomer, unassigned) [Example 123], the Ki (read-out: Ki (nM) geometric) is 0.22 nM. Take `COc1cc([C@@H](C)C(=O)N2CC[C@@]3(CCc4cc(-c5nnn(C)n5)c(C)nc4N3)C2)ccn1` (single isomer, unassigned) [Example 125]: the Ki (read-out: Ki (nM) geometric) is 3.4 nM.

As to `COc1cc([C@@H](C)C(=O)N2CC[C@@]3(CCc4cc(-c5nnn(C)n5)c(C)nc4N3)C2)nc(C(F)F)n1` (single isomer, unassigned) [Example 127], the Ki (read-out: Ki (nM) geometric) was found to be 0.97 nM. Take `COc1ncc(F)c([C@@H](C)C(=O)N2CC[C@@]3(CCc4cc(-c5nnn(C)n5)c(C)nc4N3)C2)n1` (single isomer, unassigned) [Example 134]: the Ki (read-out: Ki (nM) geometric) stood at 220 nM. Take `COc1cc([C@@H](C)C(=O)N2CC[C@@]3(CCc4cc(-c5ncccn5)c(C)nc4N3)C2)c(C)cn1` (single isomer, unassigned) [Example 136]: the Ki (read-out: Ki (nM) geometric) turned out to be 1.4 nM.

Regarding `COc1cc(C(C)(F)C(=O)N2CC[C@@]3(CCc4cc(-c5ncccn5)c(C)nc4N3)C2)c(F)cn1` (single isomer, unassigned) [Example 148], where the note is “read-out: Ki (nM) geometric”, the Ki turned out to be 12 nM. With `Cc1nc2c(cc1-c1ncccn1)CC[C@@]1(CCN(C(=O)C(C)c3ccc(F)cc3F)C1)N2` (single isomer, unassigned) [Example 190], the Ki (read-out: Ki (nM) geometric) came out at 2.3 nM. Turning to `COc1cc(C(C)C(=O)N2CC[C@@]3(CCc4cc(-c5ncccn5)c(C)nc4N3)C2)cc(OC(F)F)n1` (single isomer, unassigned) [Example 192], for the setting “read-out: Ki (nM) geometric”, the inhibitory constant (Ki) came to 0.27 nM.

For `Cc1nc2c(cc1-c1ncccn1)CC[C@@]1(CCN(C(=O)C(C)c3ccnc(OC(F)F)c3)C1)N2` (single isomer, unassigned) [Example 194], the Ki (read-out: Ki (nM) geometric) came to 92 nM. Regarding `Cc1nc2c(cc1-c1cnn(C)c1)CC[C@@]1(CCN(C(=O)Cc3ccc(F)cc3)C1)N2` (stereo in doubt) [Example 89, 2-(4-fluorophenyl)-1-[7-methyl-6-(1-methyl-1H-pyrazol-4-yl)-3,4-dihydro-1H-spiro[1,8-naphthyridine-2,3′-pyrrolidin]-1′-yl]ethan-1-one], under setting [1], the Ki was determined as 1.7 nM. With `COc1cc([C@@H](C)C(=O)N2CC[C@@]3(CCc4cc(-c5nnn(C)n5)c(C)nc4N3)C2)c(F)cn1` [Example 13, (2R)-2-(5-fluoro-2-methoxypyridin-4-yl)-1-[(2S)-7-methyl-6-(2-methyl-2H-tetrazol-5-yl)-3,4-dihydro-1H-spiro[1,8-naphthyridine-2,3′-pyrrolidin]-1′-yl]propan-1-one], the Ki under setting [1] was 0.6 nM.
